From patent publication US8486634B2, “Amplifying bisulfite-treated template” (Ambergen, Inc., priority 2007, dated 2013)

Molecular target: T1, protein kinase Cα (PKCα) (Homo sapiens, UniProt P17252)
T1 construct: isolate and photo-release endogenous PKCα from the undiluted detergent fractionated HeLa cell extracts; endogenous in cells; host or cells: HeLa cells (ATCC)
Assay: Phorbol ester (PMA) mediated PKCα sub-cellular translocation, measured by kinase activity after isolation with photocleavable antibodies
Type: cell-based
Conditions: cultured HeLa cells stimulated with 200 nM PMA for 5 min, detergent-fractionated, relative distribution based on kinase activity, n=4
Procedure: FIG. 20. Phorbol ester (PMA) mediated protein kinase Cα (PKCα) sub-cellular translocation as measured by functional activity following isolation with photocleavable antibodies. Cultured HeLa cells were stimulated with 200 nM PMA for 5 min and detergent fractionated into the cytosol and membrane compartments prior to isolation and purification with the photocleavable antibodies.
Cultured HeLa cells (ATCC; Manassas, Va.) were stimulated for 5 min with 200 nM Phorbol-12-Myristate-13-Acetate (PMA; EMD Biosciences, Inc., San Diego, Calif.) and subsequently detergent fractionated into sub-cellular compartments according to reported procedures [Ramsby et al. (1994) Electrophoresis 15, 265-277; Ramsby & Makowski. (1999) Methods Mol Biol 112, 53-66; Chiang et al. (2000) J Biochem Biophys Methods 46, 53-68]. PMA is a potent activator of PKCα and is well known to cause translocation of the kinase from the cytosolic to the membrane sub-cellular compartments [Ross & Joyner. (1997) Endothelium 5, 321-332; Bazan & Rapoport. (1996) J Pharmacol Toxicol Methods 36, 87-95; Yazlovitskaya & Melnykovych. (1995) Cancer Lett 88, 179-183]. […]

Structure (SMILES): CCCCCCCCCCCCCC(=O)O[C@@H]1[C@@H](C)[C@@]2(O)[C@@H](C=C(CO)C[C@]3(O)C(=O)C(C)=C[C@@H]23)[C@@H]2C(C)(C)[C@]12OC(C)=O [PMA, Phorbol-12-Myristate-13-Acetate]
- PKCα distribution, membrane (baseline 21±2% membrane): 84±3%
- PKCα distribution, cytosol (baseline 79±7% cytosol): 16±4%
